Data published in patent publication US10287616B2, “Label free biosensors, gram-negative bacteria detection, and real-time and end point determination of antibiotic effects” (priority 2015, dated 2019).
“And” between values parts separate entries of the source, which are not always exact repeats. Equal entries are not always repeated. Where two headings read alike, the source gives them in different places.

Experiments:
E. coli W1485 [1] = conditions: for bacterial (LPS) binding reduced to, frequency shift normalized to control / ΔR (Ω) / ΔR/R0 (%): 18 hours
Method: The gold QCM electrode consisted of a thin AT-cut quartz crystal wafer with vapor deposited gold electrode on each side (10 MHz, non-polished with 1000 A gold, geometric area is 0.22 cm2, International Crystal Company). For all QCM test, the gold electrode was mounted on the side of a KeI-F cell chamber. Frequency monitoring was performed using a Maxtek RQCM quartz crystal microbalance research instrument. Baseline was recorded in 1 mL of 10 mM HEPES buffer containing 1 mM Ca^2+ and 1 mM Mn^2+. Each of the bacterial samples to be analyzed was then added into the detection sensor cell after stabilization of resonance frequency (shift less than 1 Hz·min-1). A small magnetic stir bar was used to increase the mass transfer through convection. The frequency changes (ΔF) of the QCM were monitored using a network/spectrum/impedance analyzer (Agilent 4395A) controlled by a PC via an Intel card.
(§1) In the end point measurement, four samples containing 2×10^5 cells/mL of E. coli obtained from log phase in fresh LB culture were prepared. […] The four samples were incubated for 18 hours, 37° C., 280 rpm on an orbital environmental shaker. Finally, 1 μL of the E. coli culture from the each prepared sample was introduced to the Con A biosensor in 1 mL of 10 mM HEPES buffer (pH 7.4) for QCM and electrochemical biosensor measurements, respectively. The sample without addition of any antibiotic was used as control.
(§2) The concentrations used were based on the literature and current clinically used dosages. The sample without any antibiotic was used as a control. As mentioned above, E. coli W1485 was used as the model Gram-negative bacterial analyte. E. coli W1485 is a “semirough” bacterial strain in which the intact LPS core is capped by a single O-antigen subunit consisting of glucose, N-acetylglucosamine, galactose, and rhamnose in the ratio 1.8:1.0:0.7:0.6, which has been confirmed by the sodium dodecyl sulfate polyacrylamide gel electrophoresis (SDS-PAGE) method. Con A binds specifically at α-D-mannosyl and α-D-glucosyl residues (two hexoses differing only by the alcohol on carbon 2) in the terminal position of ramified structures from β-glycans (reach in α-mannose, or hybrid and biantennary glycanes complexes).
Here the QCM frequency shift is because of the mass loading on the QCM surface due to bacterial adhesion and the change of damping resistance is a result of increasing softness of the interface which causes the damping of the oscillation wave.

E. coli W1485 [2] = conditions: for ΔR (Ω) / ΔR/R0 (%): 3 hours; for ΔF (Hz): FIG. 26
Method: Experiments were also performed to study the concentration of the antibiotics and the length of the incubation time of antibiotics for their ability to kill or inhibit the growth of the bacteria. Different concentrations of each antibiotic were added to 5×10^8 cells/mL E. coli respectively, and then incubated at 37° C. and 280 rpm on the shaker. After 3 hours of incubation, 1 μL of antibiotic treated E. coli culture was added to the Con A sensor cell containing 1 mL of 10 mM HEPES buffer (pH 7.4) for QCM measurements, respectively. […] 1 μL of each antibiotic treated E. coli was taken at different incubation times (i.e., 0, 1, 2, 3 hours) and was added into the Con A senor cell containing 1 mL of 10 mM HEPES buffer (pH 7.4) for QCM measurements.
Because antibiotics from different classes have different mechanisms of action and antibiotic effects on bacterial morphology and viability are concentration and time dependent, it was hypothesized that the ability of antibiotics to kill the bacteria or inhibit its growth may be class and concentration dependent, which will affect the interaction between the LPS and Con A sensor. To further study the effects of concentration and length of incubation time on the bactericidal activities of antibiotics, different concentration of antibiotics were added into the broth containing E. coli and incubated for different lengths of times. […] FIGS. 26D through 26F show the histogram of ΔF or ΔR changes vs antibiotics with different concentrations that are again correlated to each other with ceftriaxone showing consistent increase in resistance with increasing its concentration. This is probably due to more and more cell lysis, thereby intensifying the fluidic environment.
To further compare the effect of concentrations on the bactericidal activities of the antibiotics, the binding kinetics between Con A sensor and E. coli were studied. The binding between Con A sensor and E. coli can be described by eq 2. [Con Aattached to gold]+[E. coli]→[E. coli/Con Aattached to gold] (2)
The amount of the complex E. coli/Con A formed at time t after the injection is given by eqs 3 and […], where ΔMmax is the maximum binding amount of E. coli/Con A, ΔM is the measured binding amount, and t is the time after injection. τ is the relaxation time associated with E. coli binding, which is calculated from curve fittings of the ΔF during the binding process. A higher τ value means a longer binding time is required between the Con A and E. coli.

E. coli W1485 [3] = experiment: End point antibiotic susceptibility test with Con A biosensor, square wave voltammetry readout; format: cell-based, Escherichia coli; conditions: 18 hours, FIG. 24B inset
Method: as §1, §2

[4] = E. coli binding to Con A sensor after 1 mg/L antibiotic
[5] = E. coli binding to Con A sensor after 10 mg/L antibiotic
[6] = E. coli binding to Con A sensor after 30 mg/L antibiotic

Compound	ΔR (Ω) (E. coli W1485 [1]; 0.1 mg/L antibiotic, FIG. 24A)	ΔR/R0 (%) (E. coli W1485 [1]; 0.1 mg/L antibiotic, FIG. 24A)	ΔR (Ω) (E. coli W1485 [2]; 1 mg/L antibiotic)	ΔR/R0 (%) (E. coli W1485 [2]; 1 mg/L antibiotic)	ΔR (Ω) (E. coli W1485 [2]; 10 mg/L antibiotic)	ΔR/R0 (%) (E. coli W1485 [2]; 10 mg/L antibiotic)	ΔR (Ω) (E. coli W1485 [2]; 30 mg/L antibiotic)	ΔR/R0 (%) (E. coli W1485 [2]; 30 mg/L antibiotic)	relaxation time τ (E. coli W1485 [2]; [4]) [min]	relaxation time τ (E. coli W1485 [2]; [5]) [min]	relaxation time τ (E. coli W1485 [2]; [6]) [min]	increase of the SWV signal as compared to control (E. coli W1485 [3]; 0.1 mg/L antibiotic) [folds]	also measured
CO/N=C(\C(=O)N[C@@H]1C(=O)N2C(C(=O)O)=C(CSc3nc(=O)c(=O)[nH]n3C)CS[C@H]12)c1csc(N)n1 [ceftriaxone]	6 Ω	2.0	16 Ω	5.2	16.5 Ω	5.4	18 Ω	5.8	15.5	18.4	22.5	4.8	bacterial (LPS) binding reduced to, frequency shift normalized to control (E. coli W1485 [1]; 0.1 mg/L antibiotic): 27%; bacterial (LPS) binding reduced to, frequency shift normalized to control (E. coli W1485 [1]; 0.1 mg/L antibiotic, listed as Ceftriaxone): 27%; ΔF (Hz) (E. coli W1485 [1]; log phase E. coli incubated 18 hours, 37° C. with 0.1 mg/L antibiotic, FIG. 24A): 87 Hz
O=C(O)c1cn(C2CC2)c2cc(N3CCNCC3)c(F)cc2c1=O [ciprofloxacin]	8 Ω	2.6	14.5 Ω	4.7	10.5 Ω	3.4	10.6 Ω	3.5	21	23.5	23.6	7.2	most effective concentration to act against this bacterial strain (E. coli W1485 [2]; no big change in ΔF from 10 to 30 mg/L): 10 mg/L
CN(C)[C@@H]1C(O)=C(C(N)=O)C(=O)[C@@]2(O)C(O)=C3C(=O)c4c(O)cccc4[C@@](C)(O)[C@H]3C[C@@H]12 [tetracycline]			16.3 Ω	5.3	17.2 Ω	5.6	14.5 Ω	4.7					ΔR (Ω) (E. coli W1485 [1]; 10 mg/L antibiotic, FIG. 24A): 7.2 Ω; ΔR/R0 (%) (E. coli W1485 [1]; 10 mg/L antibiotic, FIG. 24A): 2.3%; ΔF (Hz) (E. coli W1485 [2]; pretreated 3 hours with 10 mg/L antibiotic): 200 Hz and 212 Hz; ΔF (Hz) (E. coli W1485 [2]; pretreated 3 hours with 30 mg/L antibiotic): 160 Hz; ΔF (Hz) (E. coli W1485 [2]; stationary phase E. coli pretreated 3 hours with 1 mg/L antibiotic): 260 Hz and 262 Hz; increase of the SWV signal as compared to control (E. coli W1485 [3]; 10 mg/L antibiotic): 2 folds
